≈ marks a conversion by molar mass, not a printed value. *1 amine or outer side, *2 acyl side, *3 side chain or, on linkers, in order; H or OH if unused. Where a SMILES comes first, the peptide text is derived from it. Bridges are numbered along the chain shown (N, C = ends). [ ]: non-standard residue; d: D form. The star is where a group is joined. hTyr(3S-OH,4S-OH,3'-OSO3H) = N[C@H](C(=O)O)[C@H](O)[C@@H](O)c1ccc(O)c(OS(=O)(=O)O)c1; Orn(4R-OH,5R-OH) = O=C([C@H](C[C@@H](O)[C@@H](O)N[*:3])N[*:1])[*:2]; Pro(3S-OH,4S-Me) = C[C@H]1CN[C@H](C(=O)O)[C@H]1O; X1 = CCCCCOc1ccc(-c2cc(-c3ccc(C(=O)*)cc3)no2)cc1; Gln(3R-OH) = NC(=O)C[C@@H](O)[C@H](N)C(=O)O; Hyp = O=C(O)[C@@H]1C[C@@H](O)CN1
Experiments:
Aspergillus fumigatus [1] = test: Antifungal activity against Aspergillus fumigatus isolate after 24 hrs by CLSI method
Aspergillus fumigatus [2] = test: Antifungal activity against Aspergillus fumigatus isolate after 48 hrs by CLSI method

`C[C@@H]1[C@H](O)[C@@H](C)/C=C/C=C/C=C/C=C/C=C/C=C/C=C/[C@H](O[C@@H]2O[C@H](C)[C@@H](O)[C@H](N)[C@@H]2O)C[C@@H]2O[C@](O)(C[C@@H](O)C[C@@H](O)[C@H](O)CC[C@@H](O)C[C@@H](O)CC(=O)O[C@H]1C)C[C@H](O)[C@H]2C(=O)O` (stereo in doubt) [AMPHOTERICIN B] showed an MIC (Aspergillus fumigatus [1]) of 0.5 µg/mL (≈ 0.541 µM) and an MIC (Aspergillus fumigatus [2]) of 0.5 µg/mL (≈ 0.541 µM).
With `CCCCCOc1ccc(-c2cc(-c3ccc(C(=O)N[C@H]4C[C@@H](O)[C@@H](O)NC(=O)[C@@H]5[C@@H](O)[C@@H](C)CN5C(=O)[C@H]([C@H](O)CC(N)=O)NC(=O)[C@H]([C@H](O)[C@@H](O)c5ccc(O)c(OS(=O)(=O)O)c5)NC(=O)[C@@H]5C[C@@H](O)CN5C(=O)[C@H]([C@@H](C)O)NC4=O)cc3)no2)cc1` [MICAFUNGIN] (X1-[Orn(4R-OH,5R-OH)]T[Hyp][hTyr(3S-OH,4S-OH,3'-OSO3H)][Gln(3R-OH)][Pro(3S-OH,4S-Me)]; lactam 1-C) the MIC (Aspergillus fumigatus [1]) was ≤ 0.03 µg/mL and the MIC (Aspergillus fumigatus [2]) was ≤ 0.03 µg/mL.
For `C[C@@H]([C@H](N)C(=O)N[C@H](C(=O)O)[C@H]1O[C@@H](n2ccc(=O)[nH]c2=O)[C@H](O)[C@@H]1O)[C@H](O)c1ccc(O)cn1` [NIKKOMYCIN], the MIC (Aspergillus fumigatus [1]) was 64 µg/mL (≈ 129 µM) and the MIC (Aspergillus fumigatus [2]) was 128 µg/mL (≈ 258 µM).

— ChEMBL document CHEMBL1145464, “Modeling the combination of amphotericin B, micafungin, and nikkomycin Z against Aspergillus fumigatus in vitro using a novel response surface paradigm” (2007)
